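Briefly, cells in 96-well plates were exposed to five compound concentrations for 48 h, and endpoints were estimated by linear interpolation. GI50 marks 50% less growth. TGI marks complete inhibition of growth.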
Tests used:
Assay in all cases: inhibition of tumour cell growth, NCI panel, 48 h
A498 renal = test system: A498 renal
SF-295 CNS = test system: SF-295 CNS
UACC-257 melanoma = test system: UACC-257 melanoma
PC-3 prostate = test system: PC-3 prostate
MDA-MB-231 breast = test system: MDA-MB-231 breast
OVCAR-8 ovarian = test system: OVCAR-8 ovarian
HCC-2998 colon = test system: HCC-2998 colon
K-562 leukemia = test system: K-562 leukemia
HS 578T breast = test system: HS 578T breast
SK-MEL-28 melanoma = test system: SK-MEL-28 melanoma
HT29 colon = test system: HT29 colon
NCI-H460 lung = test system: NCI-H460 lung
HCT-15 colon = test system: HCT-15 colon
HOP-62 NSCLC = test system: HOP-62 NSCLC
NCI-H23 lung = test system: NCI-H23 lung
SR leukemia = test system: SR leukemia
SK-OV-3 ovarian = test system: SK-OV-3 ovarian
MCF7 breast = test system: MCF7 breast
NCI-H226 lung = test system: NCI-H226 lung
DU-145 prostate = test system: DU-145 prostate
SK-MEL-2 melanoma = test system: SK-MEL-2 melanoma
T-47D breast = test system: T-47D breast
HOP-92 NSCLC = test system: HOP-92 NSCLC
SK-MEL-5 melanoma = test system: SK-MEL-5 melanoma
LOX IMVI melanoma = test system: LOX IMVI melanoma
U251 CNS = test system: U251 CNS
A549 NSCLC = test system: A549 NSCLC
BT-549 breast = test system: BT-549 breast
OVCAR-3 ovarian = test system: OVCAR-3 ovarian
HL-60(TB) leukemia = test system: HL-60(TB) leukemia
SW-620 colon = test system: SW-620 colon
ACHN renal = test system: ACHN renal
MALME-3M melanoma = test system: MALME-3M melanoma
M14 melanoma = test system: M14 melanoma
CCRF-CEM leukemia = test system: CCRF-CEM leukemia
COLO 205 colon = test system: COLO 205 colon
UO-31 renal = test system: UO-31 renal
IGROV1 ovarian = test system: IGROV1 ovarian
TK-10 renal = test system: TK-10 renal
RXF 393 renal = test system: RXF 393 renal
OVCAR-5 ovarian = test system: OVCAR-5 ovarian
SNB-19 CNS = test system: SNB-19 CNS
KM12 colon = test system: KM12 colon
SF-268 CNS = test system: SF-268 CNS
EKVX NSCLC = test system: EKVX NSCLC
MDA-MB-435 = test system: MDA-MB-435
SNB-75 CNS = test system: SNB-75 CNS
UACC-62 melanoma = test system: UACC-62 melanoma
NCI-H522 lung = test system: NCI-H522 lung
RPMI-8226 leukemia = test system: RPMI-8226 leukemia
NCI/ADR-RES ovarian = test system: NCI/ADR-RES ovarian
CAKI-1 renal = test system: CAKI-1 renal
OVCAR-4 ovarian = test system: OVCAR-4 ovarian
SN12C renal = test system: SN12C renal
SF-539 CNS = test system: SF-539 CNS
HCT-116 colon = test system: HCT-116 colon
MOLT-4 leukemia = test system: MOLT-4 leukemia
786-0 renal = test system: 786-0 renal

NC(CCCCO)C(=O)O (configuration not stated)
TGI (A498 renal): > 100 µM
TGI (SF-295 CNS): > 100 µM
TGI (UACC-257 melanoma): > 100 µM
TGI (PC-3 prostate): > 100 µM
TGI (MDA-MB-231 breast): > 100 µM
TGI (OVCAR-8 ovarian): > 100 µM
TGI (HCC-2998 colon): > 100 µM
TGI (K-562 leukemia): > 100 µM
TGI (HS 578T breast): > 100 µM
TGI (SK-MEL-28 melanoma): > 100 µM
TGI (HT29 colon): > 100 µM
TGI (NCI-H460 lung): > 100 µM
TGI (HCT-15 colon): > 100 µM
TGI (HOP-62 NSCLC): > 100 µM
TGI (NCI-H23 lung): > 100 µM
TGI (SR leukemia): > 100 µM
TGI (SK-OV-3 ovarian): > 100 µM
TGI (MCF7 breast): > 100 µM
TGI (NCI-H226 lung): > 100 µM
TGI (DU-145 prostate): > 100 µM
TGI (SK-MEL-2 melanoma): > 100 µM
TGI (T-47D breast): > 100 µM
TGI (HOP-92 NSCLC): > 100 µM
TGI (SK-MEL-5 melanoma): > 100 µM
TGI (LOX IMVI melanoma): > 100 µM
TGI (U251 CNS): > 100 µM
TGI (A549 NSCLC): > 100 µM
TGI (BT-549 breast): > 100 µM
TGI (OVCAR-3 ovarian): > 100 µM
TGI (HL-60(TB) leukemia): > 100 µM
TGI (SW-620 colon): > 100 µM
TGI (ACHN renal): > 100 µM
TGI (MALME-3M melanoma): > 100 µM
TGI (M14 melanoma): > 100 µM
TGI (CCRF-CEM leukemia): > 100 µM
TGI (COLO 205 colon): > 100 µM
TGI (UO-31 renal): > 100 µM
TGI (IGROV1 ovarian): > 100 µM
TGI (TK-10 renal): > 100 µM
TGI (RXF 393 renal): > 100 µM
TGI (OVCAR-5 ovarian): > 100 µM
TGI (SNB-19 CNS): > 100 µM
TGI (KM12 colon): > 100 µM
TGI (SF-268 CNS): > 100 µM
TGI (EKVX NSCLC): > 100 µM
TGI (MDA-MB-435): > 100 µM
TGI (SNB-75 CNS): > 100 µM
TGI (UACC-62 melanoma): > 100 µM
TGI (NCI-H522 lung): > 100 µM
TGI (RPMI-8226 leukemia): > 100 µM
TGI (NCI/ADR-RES ovarian): > 100 µM
TGI (CAKI-1 renal): > 100 µM
TGI (OVCAR-4 ovarian): > 100 µM

CCN(Cc1cc(F)cc(F)c1)c1ccc(CO)c(Cl)c1
GI50 (A498 renal): 0.0343 µM
TGI (A498 renal): 0.167 µM
GI50 (SN12C renal): 12.1 µM
TGI (SN12C renal): 25.2 µM
GI50 (SF-295 CNS): 0.379 µM
TGI (SF-295 CNS): 14.3 µM
GI50 (UACC-257 melanoma): 0.0986 µM
TGI (UACC-257 melanoma): 0.429 µM
GI50 (PC-3 prostate): 12.5 µM
TGI (PC-3 prostate): 27.1 µM
GI50 (SF-539 CNS): 15.1 µM
TGI (SF-539 CNS): 29.5 µM
GI50 (MDA-MB-231 breast): 13 µM
TGI (MDA-MB-231 breast): 26.7 µM
GI50 (OVCAR-8 ovarian): 13.4 µM
TGI (OVCAR-8 ovarian): 34.7 µM
GI50 (HCC-2998 colon): 7.68 µM
TGI (HCC-2998 colon): 23.6 µM
GI50 (K-562 leukemia): 1.04 µM
TGI (K-562 leukemia): 23 µM
GI50 (HS 578T breast): 16.4 µM
TGI (HS 578T breast): 44.7 µM
GI50 (SK-MEL-28 melanoma): 13.7 µM
TGI (SK-MEL-28 melanoma): 26.8 µM
GI50 (HT29 colon): 3.74 µM
TGI (HT29 colon): 17.1 µM
GI50 (NCI-H460 lung): 0.205 µM
TGI (NCI-H460 lung): 12.5 µM
GI50 (HCT-15 colon): 12.4 µM
TGI (HCT-15 colon): 29.9 µM
GI50 (HOP-62 NSCLC): 2.67 µM
TGI (HOP-62 NSCLC): 20.2 µM
GI50 (NCI-H23 lung): 12.3 µM
TGI (NCI-H23 lung): 33.5 µM
GI50 (HCT-116 colon): 0.0723 µM
TGI (HCT-116 colon): 8.31 µM
GI50 (SR leukemia): 17.2 µM
TGI (SR leukemia): 43.6 µM
GI50 (SK-OV-3 ovarian): 10.5 µM
TGI (SK-OV-3 ovarian): 25.7 µM
GI50 (MCF7 breast): 0.208 µM
TGI (MCF7 breast): 12.8 µM
GI50 (NCI-H226 lung): 0.0801 µM
TGI (NCI-H226 lung): 0.214 µM
GI50 (DU-145 prostate): 15.4 µM
TGI (DU-145 prostate): 34.2 µM
GI50 (SK-MEL-2 melanoma): 4.43 µM
TGI (SK-MEL-2 melanoma): 20.2 µM
GI50 (T-47D breast): 0.118 µM
TGI (T-47D breast): 0.782 µM
GI50 (HOP-92 NSCLC): 0.195 µM
TGI (HOP-92 NSCLC): 9.25 µM
GI50 (SK-MEL-5 melanoma): 11.8 µM
TGI (SK-MEL-5 melanoma): 24.2 µM
GI50 (LOX IMVI melanoma): 14.4 µM
TGI (LOX IMVI melanoma): 28.2 µM
GI50 (U251 CNS): 0.992 µM
TGI (U251 CNS): 16.4 µM
GI50 (A549 NSCLC): 2.36 µM
TGI (A549 NSCLC): 21.5 µM
GI50 (BT-549 breast): 14.4 µM
TGI (BT-549 breast): 29.1 µM
GI50 (OVCAR-3 ovarian): 0.342 µM
TGI (OVCAR-3 ovarian): 2.31 µM
GI50 (HL-60(TB) leukemia): 7.25 µM
TGI (HL-60(TB) leukemia): 32.7 µM
GI50 (SW-620 colon): 0.652 µM
TGI (SW-620 colon): 18.6 µM
GI50 (ACHN renal): 13.3 µM
TGI (ACHN renal): 27 µM
GI50 (MALME-3M melanoma): 15 µM
TGI (MALME-3M melanoma): 30.4 µM
GI50 (M14 melanoma): 15.3 µM
TGI (M14 melanoma): 32.4 µM
GI50 (CCRF-CEM leukemia): 18.5 µM
TGI (CCRF-CEM leukemia): 66.5 µM
GI50 (COLO 205 colon): 3 µM
TGI (COLO 205 colon): 10.5 µM
GI50 (UO-31 renal): 3.24 µM
TGI (UO-31 renal): 21.4 µM
GI50 (IGROV1 ovarian): 0.0726 µM
TGI (IGROV1 ovarian): 0.38 µM
GI50 (TK-10 renal): 0.0425 µM
TGI (TK-10 renal): 0.236 µM
GI50 (RXF 393 renal): 2.54 µM
TGI (RXF 393 renal): 17.5 µM
GI50 (OVCAR-5 ovarian): 0.0668 µM
TGI (OVCAR-5 ovarian): 0.287 µM
GI50 (SNB-19 CNS): 14.9 µM
TGI (SNB-19 CNS): 41.2 µM
GI50 (KM12 colon): 13 µM
TGI (KM12 colon): 26.6 µM
GI50 (SF-268 CNS): 15.5 µM
TGI (SF-268 CNS): 31.3 µM
GI50 (MDA-MB-435): 14.4 µM
TGI (MDA-MB-435): 30 µM
GI50 (SNB-75 CNS): 8.49 µM
TGI (SNB-75 CNS): 27.3 µM
GI50 (MOLT-4 leukemia): 18.3 µM
TGI (MOLT-4 leukemia): 51 µM
GI50 (UACC-62 melanoma): 0.115 µM
TGI (UACC-62 melanoma): 0.909 µM
GI50 (786-0 renal): 12.5 µM
TGI (786-0 renal): 27.2 µM
GI50 (NCI-H522 lung): 13.5 µM
TGI (NCI-H522 lung): 29.4 µM
GI50 (RPMI-8226 leukemia): 2.48 µM
TGI (RPMI-8226 leukemia): 26.1 µM
GI50 (NCI/ADR-RES ovarian): 14.8 µM
TGI (NCI/ADR-RES ovarian): 38.4 µM
GI50 (CAKI-1 renal): 0.456 µM
TGI (CAKI-1 renal): 2.64 µM
GI50 (OVCAR-4 ovarian): 0.168 µM
TGI (OVCAR-4 ovarian): 2.73 µM
